Patent publication US10435399B2, “HDAC6 inhibitory heterocyclic compound” (TAKEDA PHARMACEUTICAL COMPANY LIMITED, priority 2017, dated 2019)

These compounds were tested against T1, HDAC6 enzyme (Homo sapiens, UniProt Q9UBN7) (assay: HDAC6 enzyme inhibitory activity (HDAC-Glo I/II Assay kit)). Settings: 10 μM; wells without enzyme = 100% inhibition.
T1 construct: transducing full length HDAC6 gene into Sf-9 insect cells; GST; purchased SignalChem; host or cells: Sf-9 insect cells
T1 sequence (Q9UBN7 1-1215): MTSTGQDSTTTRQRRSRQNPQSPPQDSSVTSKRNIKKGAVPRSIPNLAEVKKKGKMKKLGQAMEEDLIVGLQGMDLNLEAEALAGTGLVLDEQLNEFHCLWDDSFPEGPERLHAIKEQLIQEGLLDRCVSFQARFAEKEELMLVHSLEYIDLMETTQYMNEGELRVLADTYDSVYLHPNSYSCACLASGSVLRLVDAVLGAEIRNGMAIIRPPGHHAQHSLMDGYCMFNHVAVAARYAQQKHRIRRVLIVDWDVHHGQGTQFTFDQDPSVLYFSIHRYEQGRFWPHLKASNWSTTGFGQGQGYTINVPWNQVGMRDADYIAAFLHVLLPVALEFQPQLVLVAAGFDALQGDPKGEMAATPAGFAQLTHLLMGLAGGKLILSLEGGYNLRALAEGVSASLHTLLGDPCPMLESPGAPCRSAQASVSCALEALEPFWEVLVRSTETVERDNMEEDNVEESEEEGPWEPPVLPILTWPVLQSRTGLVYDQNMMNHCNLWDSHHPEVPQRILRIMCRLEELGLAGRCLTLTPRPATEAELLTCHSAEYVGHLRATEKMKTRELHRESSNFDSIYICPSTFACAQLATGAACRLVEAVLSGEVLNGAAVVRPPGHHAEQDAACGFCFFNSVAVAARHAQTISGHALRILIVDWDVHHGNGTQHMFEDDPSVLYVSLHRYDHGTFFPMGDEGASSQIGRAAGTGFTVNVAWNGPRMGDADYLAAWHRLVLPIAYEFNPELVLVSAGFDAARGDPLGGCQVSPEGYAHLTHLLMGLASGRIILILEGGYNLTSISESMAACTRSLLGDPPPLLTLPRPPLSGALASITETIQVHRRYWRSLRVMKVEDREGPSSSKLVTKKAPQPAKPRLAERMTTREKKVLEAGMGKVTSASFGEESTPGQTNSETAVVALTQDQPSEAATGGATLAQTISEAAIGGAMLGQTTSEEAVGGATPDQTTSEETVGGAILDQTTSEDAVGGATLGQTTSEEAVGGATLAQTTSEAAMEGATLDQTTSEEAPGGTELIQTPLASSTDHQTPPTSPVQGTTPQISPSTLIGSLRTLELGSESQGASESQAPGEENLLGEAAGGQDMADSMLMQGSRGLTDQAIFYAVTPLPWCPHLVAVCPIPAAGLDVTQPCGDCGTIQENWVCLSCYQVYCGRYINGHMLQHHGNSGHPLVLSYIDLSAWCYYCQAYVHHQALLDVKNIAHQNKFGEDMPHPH
Type: biochemical
Experimental: HDAC6 enzyme prepared by transducing full length HDAC6 gene into Sf-9 insect cells and purifying by GST affinity column were purchased from SignalChem. Using this enzyme, HDAC6 enzyme inhibitory activities of the compound of the present invention were evaluated. Enzymes were used after preserved at −70° C. HDAC6 enzyme inhibitory activity of the compound of the present invention was measured using HDAC-Glo™ I/II Assay kit (Promega) according to the following experimental method. The test compound diluted with assay buffer (24 mM Tris-HCl (pH 7.5), 1 mM MgCl2, 0.35 mM KCl, 135 mM NaCl, 0.6 mM Glutathione, 0.01% Tween-20) was added to a 384-well plate by each 2 μL. Then, HDAC6 enzyme solution diluted with assay buffer was added thereto by each 4 μL, and the plate was incubated at room temperature for 60 min. After incubated, HDAC substrate-Developer solution prepared according to Promega protocol attached to the assay kit was added to the 384-well plate by each 2 μL, and the enzyme reaction was started. After reacting at room temperature for 20 min, luminescence level was measured using plate reader Envision (PerkinElmer). The inhibitory activity of each compound of Example was calculated as a relative activity value when luminescence level in wells without enzyme is considered as 100% inhibition.

Row | Compound | HDAC6 inhibitory rate (%) (10 μM)
1 | O=C1c2cc(-c3nnc(C(F)F)o3)ccc2CN1[C@@H]1CCCC[C@H]1n1cccn1 (relative stereo) [Example 529, 6-(5-(difluoromethyl)-1,3,4-oxadiazol-2-yl)-2-((1R*,2R*)-2-(1H-pyrazol-1-yl)cyclohexyl)isoindolin-1-one (optical isomer)] | 100%
2 | O=C1c2cc(-c3nnc(C(F)F)o3)ccc2CN1[C@H]1CCCC[C@H]1n1cccn1 (relative stereo) [Example 543, 6-(5-(difluoromethyl)-1,3,4-oxadiazol-2-yl)-2-((1S*,2R*)-2-(1H-pyrazol-1-yl)cyclohexyl)isoindolin-1-one (optical isomer)] | 100%
3 | COC(=O)N1CC[C@@H](c2ccc(F)cc2)[C@H](N2Cc3ccc(-c4nnc(C(F)F)o4)cc3C2=O)C1 (relative stereo) [Example 545, methyl (3S*,4S*)-3-(6-(5-(difluoromethyl)-1,3,4-oxadiazol-2-yl)-1-oxo-1,3-dihydro-2H-isoindol-2-yl)-4-(4-fluorophenyl)piperidine-1-carboxylate (optical isomer)] | 100%

Other lines, results leading:

Row | HDAC6 inhibitory rate (%) (10 μM) | Compound
4 | 100% | O=C1c2cc(-c3nnc(C(F)F)o3)cnc2CN1[C@@H]1CCCC[C@H]1Oc1ccc(F)cc1 (relative stereo) [Example 552, 3-(5-(difluoromethyl)-1,3,4-oxadiazol-2-yl)-6-((1R*,2R*)-2-(4-fluorophenoxy)cyclohexyl)-6,7-dihydro-5H-pyrrolo[3,4-b]pyridin-5-one (optical isomer)]
5 | 100% | O=C1c2cc(-c3nnc(C(F)F)o3)cnc2CN1[C@@H]1CCCC[C@H]1c1ccccn1 (relative stereo) [Example 588, 3-(5-(difluoromethyl)-1,3,4-oxadiazol-2-yl)-6-((1R*,2R*)-2-(pyridin-2-yl)cyclohexyl)-6,7-dihydro-5H-pyrrolo[3,4-b]pyridin-5-one (optical isomer)]

Same assay, conditions: 10 μM; wells without enzyme = 100% inhibition; read-out: HDAC6 inhibitory rate (%) (10 μM)

Row | Compound | inhibition at 10 µM
6 | O=C(C(F)F)N1CCC[C@H](N2Cc3ccc(-c4nnc(C(F)F)o4)cc3C2=O)[C@H]1c1ccc(F)cc1 (racemic) [Example 584, 2-((2RS,3SR)-1-(difluoroacetyl)-2-(4-fluorophenyl)piperidin-3-yl)-6-(5-(difluoromethyl)-1,3,4-oxadiazol-2-yl)isoindolin-1-one] | 100%
7 | CC(C)(C)OC(=O)N1CCC[C@@H](N2Cc3ccc(-c4nnc(C(F)F)o4)cc3C2=O)[C@H]1c1ccc(F)cc1 (racemic) [Example 618, tert-butyl (2RS,3RS)-3-(6-(5-(difluoromethyl)-1,3,4-oxadiazol-2-yl)-1-oxo-1,3-dihydro-2H-isoindol-2-yl)-2-(4-fluorophenyl)piperidine-1-carboxylate] | 99%
8 | O=C1c2cc(-c3nnc(C(F)F)o3)ccc2CN1[C@@H]1CCCN[C@@H]1c1ccc(F)cc1 (racemic) [Example 620, 6-(5-(difluoromethyl)-1,3,4-oxadiazol-2-yl)-2-((2RS, 3RS)-2-(4-fluorophenyl)piperidin-3-yl)isoindolin-1-one] | 101%
9 | O=C1c2cc(-c3nnc(C(F)F)o3)ccc2CN1[C@@H]1CCCN(C(=O)C(F)F)[C@@H]1c1ccc(F)cc1 (racemic) [Example 624, 2-((2RS,3RS)-1-(difluoroacetyl)-2-(4-fluorophenyl)piperidin-3-yl)-6-(5-(difluoromethyl)-1,3,4-oxadiazol-2-yl)isoindolin-1-one] | 100%
10 | O=C1c2cc(-c3nnc(C(F)F)o3)ccc2CN1[C@@H]1CCCC[C@H]1n1cccn1 (relative stereo) [Example 528, 6-(5-(difluoromethyl)-1,3,4-oxadiazol-2-yl)-2-((1R*,2R*)-2-(1H-pyrazol-1-yl)cyclohexyl)isoindolin-1-one (optical isomer)] | 99%
11 | O=C1c2cc(-c3nnc(C(F)F)o3)ccc2CN1[C@H]1CCCC[C@H]1n1cccn1 (relative stereo) [Example 542, 6-(5-(difluoromethyl)-1,3,4-oxadiazol-2-yl)-2-((1S*,2R*)-2-(1H-pyrazol-1-yl)cyclohexyl)isoindolin-1-one (optical isomer)] | 90%
12 | COC(=O)N1CC[C@@H](c2ccc(F)cc2)[C@H](N2Cc3ccc(-c4nnc(C(F)F)o4)cc3C2=O)C1 (relative stereo) [Example 544, methyl (3S*,4S*)-3-(6-(5-(difluoromethyl)-1,3,4-oxadiazol-2-yl)-1-oxo-1,3-dihydro-2H-isoindol-2-yl)-4-(4-fluorophenyl)piperidine-1-carboxylate (optical isomer)] | 99%

Continued, values first:

Row | inhibition at 10 µM | Compound
13 | 100% | O=C1c2cc(-c3nnc(C(F)F)o3)cnc2CN1[C@@H]1CCCC[C@H]1Oc1cncc(F)c1 (racemic) [Example 585, 3-(5-(difluoromethyl)-1,3,4-oxadiazol-2-yl)-6-((1RS,2RS)-2-((5-fluoropyridin-3-yl)oxy)cyclohexyl)-6,7-dihydro-5H-pyrrolo[3,4-b]pyridin-5-one]
14 | 100% | O=C1c2cc(-c3nnc(C(F)F)o3)cnc2CN1[C@@H]1CCCC[C@H]1c1ccn[nH]1 (racemic) [Example 654, 3-[5-(difluoromethyl)-1,3,4-oxadiazol-2-yl]-6-[(1RS,2RS)-2-(1H-pyrazol-5-yl)cyclohexyl]-6,7-dihydro-5H-pyrrolo[3,4-b]pyridin-5-one]
15 | 99% | O=C1c2cc(-c3nnc(C(F)F)o3)cnc2CN1[C@@H]1CCCC[C@H]1n1cccn1 (relative stereo) [Example 539, 3-(5-(difluoromethyl)-1,3,4-oxadiazol-2-yl)-6-((1R*,2R*)-2-(1H-pyrazol-1-yl)cyclohexyl)-6,7-dihydro-5H-pyrrolo[3,4-b]pyridin-5-one (optical isomer)]
16 | 99% | O=C1c2cc(-c3nnc(C(F)F)o3)cnc2CN1[C@@H]1CCCC[C@H]1Oc1ccc(F)cc1 (relative stereo) [Example 551, 3-(5-(difluoromethyl)-1,3,4-oxadiazol-2-yl)-6-((1R*,2R*)-2-(4-fluorophenoxy)cyclohexyl)-6,7-dihydro-5H-pyrrolo[3,4-b]pyridin-5-one (optical isomer)]
17 | 100% | O=C1c2cc(-c3nnc(C(F)F)o3)ccc2CN1[C@@H]1CCC(F)(F)C[C@H]1c1ccccn1 (relative stereo) [Example 586, 6-(5-(difluoromethyl)-1,3,4-oxadiazol-2-yl)-2-((1R*,2R*)-4,4-difluoro-2-(pyridin-2-yl)cyclohexyl)isoindolin-1-one (Optical Isomer)]
18 | 99% | O=C1c2cc(-c3nnc(C(F)F)o3)cnc2CN1[C@@H]1CCCC[C@H]1c1ccccn1 (relative stereo) [Example 587, 3-(5-(difluoromethyl)-1,3,4-oxadiazol-2-yl)-6-((1R*,2R*)-2-(pyridin-2-yl)cyclohexyl)-6,7-dihydro-5H-pyrrolo[3,4-b]pyridin-5-one (optical isomer)]
19 | 100% | O=C1c2cc(-c3nnc(C(F)F)o3)ccc2CN1[C@@H]1CCC(F)(F)C[C@@H]1c1ccccn1 (relative stereo) [Example 590, 6-(5-(difluooromethyl)-1,3,4-oxadiazol-2-yl)-2-((1R*,2S*)-4,4-difluoro-2-(pyridin-2-yl)cyclohexyl)isoindolin-1-one (optical isomer)]
